Laboratory results taken from PubChem BioAssay AID256 (DTP/NCI, 2004).
Values joined by “and” are separate entries in the source; they are usually repeats but may differ in a detail not shown here. Equal values may be shown once. Inconclusive results and toxic doses are left out.

Test system: CD2F1 mice, L1210 leukemia ip, survival T/C
Experiment: NCI In Vivo Anticancer Drug Screen. Data for tumor model L1210 Leukemia (intraperitoneal) in CD2F1 (CDF1) mice
Conditions: higher = longer survival
Summary of the method: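 Vehicle-treated tumor-bearing mice served as controls (C) for compound-treated mice (T). Reported figure is T divided by C.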

[1] = endpoint: mean survival time, dose: 100.0 mg/kg/injection, schedule: Q04DX003 (ip), vehicle: saline
[2] = endpoint: mean survival time, dose: 200.0 mg/kg/injection, schedule: Q04DX003 (ip), vehicle: saline
[3] = endpoint: mean survival time, dose: 400.0 mg/kg/injection, schedule: Q04DX003 (ip), vehicle: saline
[4] = endpoint: mean survival time, dose: 100.0 mg/kg/injection, schedule: Q01DX009 (ip), vehicle: saline with Tween-80

## CSCc1cn(C2CC(O)C(CO)O2)c(=O)[nH]c1=O (configuration not stated)
endpoint: mean survival time, dose: 12.5 mg/kg/injection, schedule: Q01DX005 (ip), vehicle: water
  T/C: 95 % of control
endpoint: mean survival time, dose: 25.0 mg/kg/injection, schedule: Q01DX005 (ip), vehicle: water
  T/C: 98 % of control
endpoint: mean survival time, dose: 50.0 mg/kg/injection, schedule: Q01DX005 (ip), vehicle: water
  T/C: 98 % of control
endpoint: mean survival time, dose: 100.0 mg/kg/injection, schedule: Q01DX005 (ip), vehicle: water
  T/C: 95 % of control
endpoint: mean survival time, dose: 200.0 mg/kg/injection, schedule: Q01DX005 (ip), vehicle: water
  T/C: 95 % of control

## O=c1oc(/C=C/c2ccccc2)nc2cc(Cl)ccc12
endpoint: mean survival time, dose: 100.0 mg/kg/injection, schedule: Q04DX003 (ip), vehicle: saline with Tween-80
  T/C: 94 % of control
endpoint: mean survival time, dose: 200.0 mg/kg/injection, schedule: Q04DX003 (ip), vehicle: saline with Tween-80
  T/C: 92 % of control
endpoint: mean survival time, dose: 400.0 mg/kg/injection, schedule: Q04DX003 (ip), vehicle: saline with Tween-80
  T/C: 97 % of control

## CC1C(OC(=O)CCl)CCC2C1(C)CCC1C2(C)CCC2(C)C3CC(C)(C)CCC3(C)CCC12C (configuration not stated)
endpoint: mean survival time, dose: 100.0 mg/kg/injection, schedule: Q01DX001 (ip), vehicle: saline
  T/C: 97 % of control
endpoint: mean survival time, dose: 200.0 mg/kg/injection, schedule: Q01DX001 (ip), vehicle: saline
  T/C: 97 % of control
endpoint: mean survival time, dose: 400.0 mg/kg/injection, schedule: Q01DX001 (ip), vehicle: saline
  T/C: 97 % of control

## COC(=O)[C@@]12OC[C@]34[C@H]([C@@H](O)[C@@H]1O)[C@@]1(C)CC(=O)C(OC(=O)CC(=O)OC5=C(C)[C@@H]6C[C@H]7OC(=O)[C@H](OC(=O)/C=C(\C)C(C)C)[C@H]8[C@]9(C(=O)OC)OC[C@]78[C@H]([C@@H](O)[C@@H]9O)[C@@]6(C)CC5=O)=C(C)[C@@H]1C[C@H]3OC(=O)[C@H](OC(=O)/C=C(\C)C(C)C)[C@@H]24
endpoint: median survival time, dose: 0.37 mg/kg/injection, schedule: Q01DX009 (ip), vehicle: saline + Tween-80 + alcohol
  T/C: 113 % of control
endpoint: median survival time, dose: 0.38 mg/kg/injection, schedule: Q01DX009 (ip), vehicle: saline + Tween-80 + alcohol
  T/C: 112 % of control
endpoint: median survival time, dose: 0.75 mg/kg/injection, schedule: Q01DX009 (ip), vehicle: saline + Tween-80 + alcohol
  T/C: 115 % of control and 121 % of control
endpoint: median survival time, dose: 1.5 mg/kg/injection, schedule: Q01DX009 (ip), vehicle: saline + Tween-80 + alcohol
  T/C: 121 % of control and 112 % of control

## O=P1(N(CCCl)CCCl)OCCC(OO)N1CCCl (configuration not stated)
endpoint: mean survival time, dose: 100.0 mg/kg/injection, schedule: Q01DX001 (ip), vehicle: DMSO
  T/C: 268 % of control
endpoint: mean survival time, dose: 100.0 mg/kg/injection, schedule: Q01DX001 (ip), vehicle: Klucel (hydroxypropylcellulose) (HPC)
  T/C: 281 % of control
endpoint: mean survival time, dose: 200.0 mg/kg/injection, schedule: Q01DX001 (ip), vehicle: Klucel (hydroxypropylcellulose) (HPC)
  T/C: 309 % of control
endpoint: mean survival time, dose: 400.0 mg/kg/injection, schedule: Q01DX001 (ip), vehicle: DMSO
  T/C: 163 % of control

## Cn1c2cc(Cl)c(Cl)cc2nc2cc3c(cc21)c(Cl)c(=O)c1cc2cc(Cl)c(Cl)cc2cc13
[1]
  T/C: 95 % of control
[2]
  T/C: 95 % of control
[3]
  T/C: 100 % of control

## COc1cccc2c1C(=O)c1c(O)c3c(c(O)c1C2=O)CC(O)(/C(C)=N/NC(=O)CCC(=O)N/N=C(\C)C1(O)Cc2c(O)c4c(c(O)c2C(OC2CC(N)C(O)C(C)O2)C1)C(=O)c1c(OC)cccc1C4=O)CC3OC1CC(N)C(O)C(C)O1 (configuration not stated)
endpoint: mean survival time, dose: 0.39 mg/kg/injection, schedule: Q01DX009 (ip), vehicle: water
  T/C: 102 % of control
endpoint: mean survival time, dose: 0.78 mg/kg/injection, schedule: Q01DX009 (ip), vehicle: water
  T/C: 106 % of control
endpoint: mean survival time, dose: 1.56 mg/kg/injection, schedule: Q01DX009 (ip), vehicle: water
  T/C: 113 % of control and 101 % of control
endpoint: mean survival time, dose: 3.13 mg/kg/injection, schedule: Q01DX009 (ip), vehicle: water
  T/C: 106 % of control and 111 % of control
endpoint: mean survival time, dose: 6.25 mg/kg/injection, schedule: Q01DX009 (ip), vehicle: water
  T/C: 118 % of control
endpoint: mean survival time, dose: 12.5 mg/kg/injection, schedule: Q01DX009 (ip), vehicle: water
  T/C: 150 % of control
endpoint: mean survival time, dose: 25.0 mg/kg/injection, schedule: Q01DX009 (ip), vehicle: water
  T/C: 111 % of control

## C(=N\Nc1nn[nH]n1)/c1ccccc1
endpoint: mean survival time, dose: 25.0 mg/kg/injection, schedule: Q01DX009 (ip), vehicle: saline with Tween-80
  T/C: 105 % of control
endpoint: mean survival time, dose: 50.0 mg/kg/injection, schedule: Q01DX009 (ip), vehicle: saline with Tween-80
  T/C: 97 % of control
[4]
  T/C: 108 % of control

## COc1cc(NC2CCCCC2O)c2nc(-c3ccc(Cl)cc3)ccc2c1 (configuration not stated)
endpoint: mean survival time, dose: 50.0 mg/kg/injection, schedule: Q04DX003 (ip), vehicle: saline
  T/C: 110 % of control
[1]
  T/C: 96 % of control
[2]
  T/C: 107 % of control
[3]
  T/C: 112 % of control

## CCOC(=O)NCC(Cl)CP(=O)(c1ccccc1)c1ccccc1 (configuration not stated)
endpoint: mean survival time, dose: 100.0 mg/kg/injection, schedule: Q01DX001 (ip), vehicle: saline with Tween-80
  T/C: 92 % of control
[4]
  T/C: 97 % of control
endpoint: mean survival time, dose: 200.0 mg/kg/injection, schedule: Q01DX001 (ip), vehicle: saline with Tween-80
  T/C: 92 % of control
endpoint: mean survival time, dose: 200.0 mg/kg/injection, schedule: Q01DX009 (ip), vehicle: saline with Tween-80
  T/C: 97 % of control
endpoint: mean survival time, dose: 400.0 mg/kg/injection, schedule: Q01DX001 (ip), vehicle: saline with Tween-80
  T/C: 92 % of control
endpoint: mean survival time, dose: 400.0 mg/kg/injection, schedule: Q01DX009 (ip), vehicle: saline with Tween-80
  T/C: 96 % of control

## COc1nc(NC2OC(CO)C(O)C(O)C2O)c(Br)c(=O)n1C (configuration not stated)
endpoint: median survival time, dose: 12.5 mg/kg/injection, schedule: Q01DX005 (ip), vehicle: saline with Tween-80
  T/C: 101 % of control
endpoint: median survival time, dose: 25.0 mg/kg/injection, schedule: Q01DX005 (ip), vehicle: saline with Tween-80
  T/C: 101 % of control
endpoint: median survival time, dose: 50.0 mg/kg/injection, schedule: Q01DX005 (ip), vehicle: saline with Tween-80
  T/C: 100 % of control
endpoint: median survival time, dose: 100.0 mg/kg/injection, schedule: Q01DX005 (ip), vehicle: saline with Tween-80
  T/C: 102 % of control
endpoint: median survival time, dose: 200.0 mg/kg/injection, schedule: Q01DX005 (ip), vehicle: saline with Tween-80
  T/C: 96 % of control
